Laboratory results reported in patent US20070049564A1 (Wyeth, priority 2005, published 2007).
Values after ≈ are worked out from the molar mass of the structure shown. Where two headings read alike, the source gives them in different places. Blank lines part the entries; values can stand above or below the molecule they belong to.

Key:
[1] = system: S. aureus GC 6466; assay: MIC, broth microdilution; conditions: Staphylococcus aureus
[2] = system: E. coli GC 2234; assay: MIC, broth microdilution; conditions: Escherichia coli
[3] = system: S. aureus GC 6469; assay: MIC, broth microdilution; conditions: Staphylococcus aureus
[4] = system: E. coli; assay: Range of MIC for E. coli strains; conditions: Escherichia coli
[5] = system: E. faecalis GC 2265; assay: MIC, broth microdilution; conditions: Enterococcus faecalis
[6] = system: S. aureus GC 1131; assay: MIC, broth microdilution; conditions: Staphylococcus aureus
[7] = system: Staph.; assay: Range of MIC for Staph. strains, including MRSA; conditions: Staphylococcus aureus, MRSA
[8] = system: E. coli GC 6465; assay: MIC, broth microdilution; conditions: Escherichia coli
[9] = system: E. faecium GC 2243; assay: MIC, broth microdilution; conditions: Enterococcus faecium
[10] = system: S. pyogenes GC 4563; assay: MIC, broth microdilution; conditions: Streptococcus pyogenes
[11] = system: S. aureus GC 4536; assay: MIC, broth microdilution; conditions: Staphylococcus aureus
[12] = system: E. coli GC 2236; assay: MIC, broth microdilution; conditions: Escherichia coli
[13] = system: c. albicans GC 3066; assay: MIC, broth microdilution; conditions: for MIC: Candida albicans, GC3066, read-out: MINIMAL INHIBITORY CONCENTRATION MIC; for MINIMAL INHIBITORY CONCENTRATION MIC: pre-incubated in Water
[14] = system: E. coli GC 1073; assay: MIC, broth microdilution; conditions: Escherichia coli
[15] = system: E. coli GC 2233; assay: MIC, broth microdilution; conditions: Escherichia coli
[16] = system: S. pneumoniae+ GC 4465; assay: MIC, broth microdilution; conditions: Streptococcus pneumoniae
[17] = system: E. faecalis GC 4555; assay: MIC, broth microdilution; conditions: Enterococcus faecalis
[18] = system: S. aureus GC 1079; assay: MIC, broth microdilution; conditions: Staphylococcus aureus
[19] = system: E. coli GC 2272; assay: MIC, broth microdilution; conditions: Escherichia coli
[20] = system: S. epidermidis GC 4935; assay: MIC, broth microdilution; conditions: Staphylococcus epidermidis
[21] = GC6466, read-out: MINIMAL INHIBITORY CONCENTRATION MIC, pre-incubated in Mouse Serum
[22] = GC6466, read-out: MINIMAL INHIBITORY CONCENTRATION MIC, pre-incubated in Water
[23] = GC2234, read-out: MINIMAL INHIBITORY CONCENTRATION MIC, pre-incubated in Mouse Serum
[24] = GC2234, read-out: MINIMAL INHIBITORY CONCENTRATION MIC, pre-incubated in Water
[25] = GC6469, read-out: MINIMAL INHIBITORY CONCENTRATION MIC, pre-incubated in Mouse Serum
[26] = GC6469, read-out: MINIMAL INHIBITORY CONCENTRATION MIC, pre-incubated in Water
[27] = 20 h, read-out: Range of MIC, E. coli (Mouse Serum)
[28] = read-out: Minimum inhibitory concentration (MIC), E. coli (mouse serum)
[29] = read-out: Minimum inhibitory concentration (MIC), E. coli (water)
[30] = read-out: Range of MIC, E. coli (Water)
[31] = GC2265, read-out: MINIMAL INHIBITORY CONCENTRATION MIC, pre-incubated in Mouse Serum
[32] = GC2265, read-out: MINIMAL INHIBITORY CONCENTRATION MIC, pre-incubated in Water
[33] = GC1131, read-out: MINIMAL INHIBITORY CONCENTRATION MIC, pre-incubated in Mouse Serum
[34] = GC1131, read-out: MINIMAL INHIBITORY CONCENTRATION MIC, pre-incubated in Water
[35] = read-out: Minimum inhibitory concentration (MIC), Staph. (mouse serum)
[36] = read-out: Range of MIC, Staph (Mouse Serum)
[37] = GC6465, read-out: MINIMAL INHIBITORY CONCENTRATION MIC, pre-incubated in Mouse Serum
[38] = GC6465, read-out: MINIMAL INHIBITORY CONCENTRATION MIC, pre-incubated in Water
[39] = GC2243, read-out: MINIMAL INHIBITORY CONCENTRATION MIC, pre-incubated in Mouse Serum
[40] = GC2243, read-out: MINIMAL INHIBITORY CONCENTRATION MIC, pre-incubated in Water
[41] = GC4563, read-out: MINIMAL INHIBITORY CONCENTRATION MIC, pre-incubated in Mouse Serum
[42] = GC4563, read-out: MINIMAL INHIBITORY CONCENTRATION MIC, pre-incubated in Water
[43] = GC4536, read-out: MINIMAL INHIBITORY CONCENTRATION MIC, pre-incubated in Mouse Serum
[44] = GC4536, read-out: MINIMAL INHIBITORY CONCENTRATION MIC, pre-incubated in Water
[45] = GC2236, read-out: MINIMAL INHIBITORY CONCENTRATION MIC, pre-incubated in Mouse Serum
[46] = GC2236, read-out: MINIMAL INHIBITORY CONCENTRATION MIC, pre-incubated in Water
[47] = GC1073, read-out: MINIMAL INHIBITORY CONCENTRATION MIC, pre-incubated in Mouse Serum
[48] = GC1073, read-out: MINIMAL INHIBITORY CONCENTRATION MIC, pre-incubated in Water
[49] = GC2233, read-out: MINIMAL INHIBITORY CONCENTRATION MIC, pre-incubated in Mouse Serum
[50] = GC2233, read-out: MINIMAL INHIBITORY CONCENTRATION MIC, pre-incubated in Water
[51] = read-out: MINIMAL INHIBITORY CONCENTRATION MIC, pre-incubated in Mouse Serum
[52] = read-out: MINIMAL INHIBITORY CONCENTRATION MIC, pre-incubated in Water
[53] = GC4555, read-out: MINIMAL INHIBITORY CONCENTRATION MIC, pre-incubated in Mouse Serum
[54] = GC4555, read-out: MINIMAL INHIBITORY CONCENTRATION MIC, pre-incubated in Water
[55] = GC1079, read-out: MINIMAL INHIBITORY CONCENTRATION MIC, pre-incubated in Mouse Serum
[56] = GC1079, read-out: MINIMAL INHIBITORY CONCENTRATION MIC, pre-incubated in Water
[57] = GC2272, read-out: MINIMAL INHIBITORY CONCENTRATION MIC, pre-incubated in Mouse Serum
[58] = GC2272, read-out: MINIMAL INHIBITORY CONCENTRATION MIC, pre-incubated in Water
[59] = GC4935, read-out: MINIMAL INHIBITORY CONCENTRATION MIC, pre-incubated in Mouse Serum
[60] = GC4935, read-out: MINIMAL INHIBITORY CONCENTRATION MIC, pre-incubated in Water

- MIC [1, 21]: 1 µg/mL (≈ 1.19 µM)
- MIC [1, 22]: 64 µg/mL (≈ 76.2 µM)
- MIC [2, 23]: 0.5 µg/mL (≈ 0.595 µM)
- MIC [2, 24]: > 64 µg/mL
- MIC [3, 25]: 4 µg/mL (≈ 4.76 µM)
- MIC [3, 26]: > 64 µg/mL
- MIC [4, 27]: 0.5 to 8 µg/mL (≈ 0.595 to 9.52 µM)
- MIC [4, 28]: 0.5 to 8 µg/mL (≈ 0.595 to 9.52 µM)
- MIC [4, 29]: > 64 µg/mL
- MIC [4, 30]: > 64 µg/mL
- MIC [5, 31]: 1 µg/mL (≈ 1.19 µM)
- MIC [5, 32]: 64 µg/mL (≈ 76.2 µM)
- MIC [6, 33]: 1 µg/mL (≈ 1.19 µM)
- MIC [6, 34]: 64 µg/mL (≈ 76.2 µM)
- MIC [7, 35]: 1 to 4 µg/mL (≈ 1.19 to 4.76 µM)
- MIC [7, 36]: 1 to 4 µg/mL (≈ 1.19 to 4.76 µM)
- MIC [8, 37]: 4 µg/mL (≈ 4.76 µM)
- MIC [8, 38]: > 64 µg/mL
- MIC [9, 39]: 0.5 µg/mL (≈ 0.595 µM)
- MIC [9, 40]: 8 µg/mL (≈ 9.52 µM)
- MIC [10, 41]: 0.25 µg/mL (≈ 0.298 µM)
- MIC [10, 42]: 0.12 µg/mL (≈ 0.143 µM)
- MIC [11, 43]: 2 µg/mL (≈ 2.38 µM)
- MIC [11, 44]: 32 µg/mL (≈ 38.1 µM)
- MIC [12, 45]: 1 µg/mL (≈ 1.19 µM)
- MIC [12, 46]: > 64 µg/mL
- MIC [13]: > 64 µg/mL
- MINIMAL INHIBITORY CONCENTRATION MIC [13]: >64 UG/ML
- MIC [14, 47]: 1 µg/mL (≈ 1.19 µM)
- MIC [14, 48]: > 64 µg/mL
- MIC [15, 49]: 1 µg/mL (≈ 1.19 µM)
- MIC [15, 50]: > 64 µg/mL
- MIC [16, 51]: 4 µg/mL (≈ 4.76 µM)
- MIC [16, 52]: 4 µg/mL (≈ 4.76 µM)
- MIC [17, 53]: 1 µg/mL (≈ 1.19 µM)
- MIC [17, 54]: 64 µg/mL (≈ 76.2 µM)
- MIC [18, 55]: 4 µg/mL (≈ 4.76 µM)
- MIC [18, 56]: > 64 µg/mL
- MIC [19, 57]: 1 µg/mL (≈ 1.19 µM)
- MIC [19, 58]: > 64 µg/mL
- MIC [20, 59]: 2 µg/mL (≈ 2.38 µM)
- MIC [20, 60]: 64 µg/mL (≈ 76.2 µM)
Compound: CCCCN(CC(=O)Nc1cc(N(C)C)c2c(c1O)C(=O)C1=C(O)[C@]3(O)C(=O)C(C(N)=O)=C(O)[C@@H](N(C)C)[C@@H]3C[C@@H]1C2)C(=O)OCOC(=O)c1ccc(-c2ccccc2)cc1 [Example 21, ({[(2-{[(5aR,6aS,7S,10aS)-9-(aminocarbonyl)-4,7-bis(dimethylamino)-1,8,10a,11-tetrahydroxy-10,12-dioxo-5,5a,6,6a,7,10,10a,12-octahydrotetracen-2-yl]amino}-2-oxoethyl)(butyl)amino]carbonyl}oxy)methyl 1,1′-biphenyl-4-carboxylate]

- MIC [1, 21]: 0.5 µg/mL (≈ 0.631 µM)
- MIC [1, 22]: 2 µg/mL (≈ 2.53 µM)
- MIC [2, 23]: 1 µg/mL (≈ 1.26 µM)
- MIC [2, 24]: > 64 µg/mL
- MIC [3, 25]: 4 µg/mL (≈ 5.05 µM)
- MIC [3, 26]: 64 µg/mL (≈ 80.8 µM)
- MIC [4, 27]: 1 to 8 µg/mL (≈ 1.26 to 10.1 µM)
- MIC [4, 28]: 1 to 8 µg/mL (≈ 1.26 to 10.1 µM)
- MIC [4, 29]: > 64 µg/mL
- MIC [4, 30]: > 64 µg/mL
- MIC [5, 31]: 2 µg/mL (≈ 2.53 µM)
- MIC [5, 32]: 64 µg/mL (≈ 80.8 µM)
- MIC [6, 33]: 1 µg/mL (≈ 1.26 µM)
- MIC [6, 34]: 4 µg/mL (≈ 5.05 µM)
- MIC [7, 35]: 0.5 to 4 µg/mL (≈ 0.631 to 5.05 µM)
- MIC [7, 36]: 0.5 to 4 µg/mL (≈ 0.631 to 5.05 µM)
- MIC [8, 37]: 8 µg/mL (≈ 10.1 µM)
- MIC [8, 38]: > 64 µg/mL
- MIC [9, 39]: 1 µg/mL (≈ 1.26 µM)
- MIC [9, 40]: 8 µg/mL (≈ 10.1 µM)
- MIC [10, 41]: 0.5 µg/mL (≈ 0.631 µM)
- MIC [10, 42]: 1 µg/mL (≈ 1.26 µM)
- MIC [11, 43]: 1 µg/mL (≈ 1.26 µM)
- MIC [11, 44]: 2 µg/mL (≈ 2.53 µM)
- MIC [12, 45]: 2 µg/mL (≈ 2.53 µM)
- MIC [12, 46]: > 64 µg/mL
- MIC [13]: > 64 µg/mL
- MINIMAL INHIBITORY CONCENTRATION MIC [13]: >64 UG/ML
- MIC [14, 47]: 2 µg/mL (≈ 2.53 µM)
- MIC [14, 48]: > 64 µg/mL
- MIC [15, 49]: 2 µg/mL (≈ 2.53 µM)
- MIC [15, 50]: > 64 µg/mL
- MIC [16, 51]: 4 µg/mL (≈ 5.05 µM)
- MIC [16, 52]: 16 µg/mL (≈ 20.2 µM)
- MIC [17, 53]: 2 µg/mL (≈ 2.53 µM)
- MIC [17, 54]: 64 µg/mL (≈ 80.8 µM)
- MIC [18, 55]: 2 µg/mL (≈ 2.53 µM)
- MIC [18, 56]: 32 µg/mL (≈ 40.4 µM)
- MIC [19, 57]: 1 µg/mL (≈ 1.26 µM)
- MIC [19, 58]: > 64 µg/mL
- MIC [20, 59]: 2 µg/mL (≈ 2.53 µM)
- MIC [20, 60]: 16 µg/mL (≈ 20.2 µM)
Compound: CCCCN(CC(=O)Nc1cc(N(C)C)c2c(c1O)C(=O)C1=C(O)[C@]3(O)C(=O)C(C(N)=O)=C(O)[C@@H](N(C)C)[C@@H]3C[C@@H]1C2)C(=O)OCOC(=O)c1cc(C)cc(C)c1 [Example 22, ({[(2-{[(5aR,6aS,7S,10aS)-9-(aminocarbonyl)-4,7-bis(dimethylamino)-1,8,10a,11-tetrahydroxy-10,12-dioxo-5,5a,6,6a,7,10,10a,12-octahydrotetracen-2-yl]amino}-2-oxoethyl)(butyl)amino]carbonyl}oxy)methyl 3,5-dimethylbenzoate]
